The results in this text go back to patent US6281214A, “Biphenyl derivatives” (Eisai Co., Ltd, priority 1994, dated 2001).

Set-up in all cases: species or system SD rats
In one assay the target is T1, serotonin S2 receptor (Rattus norvegicus, UniProt P14842).
T1 construct: The receptor fraction prepared from the cortex was molten and suspended; from tissue; host or cells: cerebral cortex of SD rats (membrane fraction)
Nature of the assay: serotonin S2 receptor binding test ([3H] Ketanserin Binding Test). As to conditions: 1 nM [3H] Ketanserin, rat cortex, 37° C., 15 minutes. As for the experimental part:
(§1) The compounds of the present invention were subjected to each of serotonin S2 receptor binding test, dopamine D2 receptor binding test and adrenergic α1 receptor binding test.
(§2) The following reagents were used in this test.
(§3) These reagents and samples were each dissolved in 10% ethanol before use. Among them, water-insoluble compounds were each dissolved in ethanol and the obtained solution was diluted with distilled water to an ethanol concentration of 10%. Further, Methylsergide maleate was used in a state dissolved in distilled water.
(§4) SD rats aged 6 to 8 weeks were used.
(§5) SD rats were each slaughtered with a guillotine to extirpate its cerebrum. The cortex and corpus striatum were separated from the cerebrum. The former was used in serotonin S2 receptor binding test and adrenergic α1, receptor binding test, while the latter was used in dopamine D2 receptor binding test.
(§6) The cortex was homogenized in a 0.32 M sucrose solution in an amount ten times the wet weight of the cortex by the use of a teflon glass homogenizer and the resulting mixture was centrifuged at 10,000×G for 20 minutes. The obtained sediment was suspended in 50 mM Tris hydrochloride (pH 7.4) in an amount ten times the initial wet weight of the cortex by the use of a histocothrom, and the obtained suspension was centrifuged at 10,000×G for 20 minutes. This operation was repeated twice. The obtained sediment was suspended in 50 mM Tris hydrochloride (pH 7.4) in an amount 20 times the initial wet weight of the cortex by the use of a histocothrom. The suspension thus prepared was used as a receptor fraction. This receptor fraction was stored at -80° C. until use.
4. [^3 ] Ketanserin Binding Test
The receptor fraction prepared from the cortex was molten and suspended by the use of a histocothrom. The resulting suspension was incubated together with 1 nM-[^3 H] Ketanserin at 37° C. for 15 minutes. The resulting reaction system was filtered through a Whatman GF/B glass filter with an MR-30R type cell harvester mfd. by Blandel. The resulting filter was washed twice with 5 ml of 50 mM Tris hydrochloride (ph 7.4) cooled with ice and the radioactivity of the Ketanserin bound the receptor was determined by the use of a liquid scintillation counter with 5 ml of ACS II. The binding detected in the presence of […] of Methylsergide was regarded as nonspecific binding.
(§7) Each IC50 value was calculated by the probit method and each Ki value was determined by the following formula: [formula]
(§8) In the above formula, C represents the concentration of radioligand, and Kd represents the affinity of radioligand for the receptor as determined by the Scatchard analysis.

The target of the next assay is T2, dopamine D2 receptor (Rattus norvegicus, UniProt P61169).
T2 construct: the receptor fraction prepared from the corpus striatum was molten and suspended; from tissue; host or cells: corpus striatum of SD rats (membrane fraction)
T2 sequence (P61169 whole entry): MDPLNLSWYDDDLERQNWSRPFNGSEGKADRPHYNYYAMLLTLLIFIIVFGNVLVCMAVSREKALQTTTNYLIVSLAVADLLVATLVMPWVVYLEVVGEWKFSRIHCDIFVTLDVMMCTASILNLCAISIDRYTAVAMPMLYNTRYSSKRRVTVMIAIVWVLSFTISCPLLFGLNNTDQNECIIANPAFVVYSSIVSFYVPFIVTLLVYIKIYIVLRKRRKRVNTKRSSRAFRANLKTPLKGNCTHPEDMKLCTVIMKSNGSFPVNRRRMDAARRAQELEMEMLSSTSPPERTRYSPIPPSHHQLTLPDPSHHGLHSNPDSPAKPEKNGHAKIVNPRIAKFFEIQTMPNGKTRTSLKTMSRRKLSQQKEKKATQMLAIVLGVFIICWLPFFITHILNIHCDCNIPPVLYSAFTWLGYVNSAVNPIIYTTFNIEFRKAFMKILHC
Description: dopamine D2 receptor binding test ([3H] Spiperone Binding Test). To be noted: 1 nM [3H] Spiperone, rat corpus striatum, room temperature, 60 minutes. The protocol: as §1, §2, §3, §4, §5
On the other hand, the corpus striatum was homogenized in a 0.32 M sucrose solution in an amount ten times the wet weight of the corpus striatum by the use of a teflon glass homogenizer and the obtained mixture was centrifuged at 1,000×G for 20 minutes. The obtained supernatant was centrifuged at 10,000×G for 20 minutes. The obtained sediments were suspended together in 50 mM Tris hydrochloride (pH 7.4) in an amount ten times the initial wet weight of the corpus striatum by the use of a histocothrom, and the obtained suspension was centrifuged at 10,000×G for 20 minutes. This operation was repeated thrice. The resulting sediment was suspended in 50 mM Krebs-Tris (pH 7.4) in an amount 100 times the initial wet weight of the corpus striatum by the use of a histocothrom. The obtained suspension was used as a receptor fraction. This receptor fraction was stored at -80° C. until use.
as §7, §8
5. [^3 H] Spiperone Binding Test
This test was conducted in the same manner as that of the binding test of [^3 H] Ketanserin except that the receptor fraction prepared from the corpus striatum was molten and suspended with a histocothrom, and the obtained suspension was incubated together with 1 nM-[^3 H], Spiperone at room temperature for 60 minutes and that the binding detected in the presence of 10 μl of Spiperone was regarded as nonspecific binding.

Another assay deals with adrenergic α1 receptor. Nature of the assay: adrenergic α1 receptor binding test ([3H] Prazosin Binding Test). As to conditions: 1 nM [3H] Prazosin, rat cortex, room temperature, 60 minutes. As for the experimental part: as §1, §2, §3, §4, §5, §6, §7, §8
6. [^3 H] Prazosin Binding Test
This test was conducted in the same manner as that of the binding test of [^3 H] Ketanserin except that the receptor fraction prepared from the cortex was molten and suspended with a histocothrom, and the obtained suspension was incubated together with 1 nM-[^3 H] Prazosin at room temperature for 60 minutes and that the binding detected in the presence of 10 μl of Phentolamine was regarded as nonspecific binding.

Setting [1] is: read-out: Ki value, dopamine D2 receptor.

Read-outs that look alike come from different tables or passages of the source.

T1 sequence (P14842 whole entry): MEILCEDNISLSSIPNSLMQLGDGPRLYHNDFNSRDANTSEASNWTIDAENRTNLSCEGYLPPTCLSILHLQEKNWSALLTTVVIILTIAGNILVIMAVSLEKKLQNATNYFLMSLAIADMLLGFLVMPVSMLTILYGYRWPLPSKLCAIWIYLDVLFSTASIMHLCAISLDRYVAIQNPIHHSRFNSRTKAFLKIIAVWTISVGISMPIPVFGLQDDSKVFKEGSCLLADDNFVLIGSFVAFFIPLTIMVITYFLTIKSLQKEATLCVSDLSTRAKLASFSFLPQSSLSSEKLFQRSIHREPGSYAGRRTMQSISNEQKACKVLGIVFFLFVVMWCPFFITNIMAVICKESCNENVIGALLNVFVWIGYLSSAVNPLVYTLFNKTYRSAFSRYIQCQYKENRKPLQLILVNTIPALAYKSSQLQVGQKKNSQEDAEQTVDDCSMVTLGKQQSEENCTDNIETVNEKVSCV

As to `CCCC(F)c1cc(N2CCN(CC)CC2)cc(-c2ccccc2)c1OC` (stereo not drawn) [Example 47, 1-Ethyl-4-[3-phenyl-4-methoxy-5-(1-fluorobutyl)]phenylpiperazine], the Ki on serotonin S2 receptor is 5.72 nM; at dopamine D2 receptor (setting [1]) it was 12.9 nM; at adrenergic α1 receptor, above 1000 nM.
On the same counts, the results for `CCCCC(F)c1cc(N2CCN(CC)CC2)cc(-c2ccccc2)c1OC` (stereo not drawn) [Example 48, 1-Ethyl-4-[3-phenyl-4-methoxy-5-(1-fluoropentyl)]phenylpiperazine] are 4.32 nM, 25.8 nM and above 1000 nM.
For `CCCC(F)c1cc(N2CCN(CC)CC2)cc(-c2ccccc2C)c1Cl` (stereo not drawn) [Example 49, 1-Ethyl-4-[3-(2-tolyl)-4-chloro-5-(1-fluorobutyl)]phenylpiperazine] the same measures were 20.1 nM, 6.09 nM and above 1000 nM.
On the same counts, the results for `CCCC(F)c1cc(N2CCN(CC)CC2)cc(-c2ccccc2C)c1F` (stereo not drawn) [Example 50, 1-Ethyl-4-[3-(2-tolyl)-4-fluoro-5-(1-fluorobutyl)]phenylpiperazine] are 17.7 nM, 9.14 nM and above 1000 nM.
With `CCN1CCN(c2cc(-c3ccccc3C)c(Cl)c(C(F)CC(C)C)c2)CC1` (stereo not drawn) [Example 51, 1-Ethyl-4-[3-(2-tolyl)-4-chloro-5-(1-fluoro-3-methylbutyl)]phenylpiperazine], the Ki on serotonin S2 receptor was 164 nM; on dopamine D2 receptor (setting [1]), 27.2 nM; on adrenergic α1 receptor, above 1000 nM.
On the same counts, the results for `CCN1CCN(c2cc(-c3ccccc3C)c(Cl)c(C(C)F)c2)CC1` (stereo not drawn) [Example 52] are 21.6 nM, 0.99 nM and above 1000 nM.
Turning to `CCCC(F)c1cc(N2CCN(C)CC2)cc(-c2ccccc2C)c1Cl` (stereo not drawn) [Example 53, 1-Methyl-4-[3-(2-tolyl)-4-chloro-5-(1-fluorobutyl)]phenylpiperazine], the Ki at serotonin S2 receptor is 12.4 nM; at dopamine D2 receptor (setting [1]), 6.73 nM; at adrenergic α1 receptor, above 1000 nM.
Take `CCCC(F)c1cc(N2CCN(CC)CC2)cc(-c2ccccc2Cl)c1Cl` (stereo not drawn) [Example 54, 1-Ethyl-4-[3-(2-chlorophenyl)-4-chloro-5-(1-fluorobutyl)]phenylpiperazine]: the Ki at serotonin S2 receptor was 37.5 nM; on dopamine D2 receptor (setting [1]), 6.06 nM; at adrenergic α1 receptor it was above 1000 nM.
In the case of `CCN1CCN(c2cc(-c3ccccc3C)c(Cl)c(C(F)(F)CC)c2)CC1` [Example 55, 1-Ethyl-4-[3-(2-tolyl)-4-chloro-5-(1,1-difluoropropyl)]phenylpiperazine], the Ki was 113 nM on serotonin S2 receptor, 3.1 nM on dopamine D2 receptor (setting [1]) and above 1000 nM at adrenergic α1 receptor.
Take `CCN1CCN(c2cc(-c3ccccc3)c(OC)c(-c3ccccc3)c2)CC1` [Example 56, 1-Ethyl-4-(3,5-diphenyl-4-methoxy)phenylpiperazine]: the Ki on serotonin S2 receptor is 212 nM; at dopamine D2 receptor (setting [1]), 111 nM; on adrenergic α1 receptor, 503 nM.
For `CCN1CCN(c2ccc(OC)c(-c3ccccc3)c2)CC1` [Example 57, 1-Ethyl-4-(3-phenyl-4-methoxy)phenylpiperazine] the same measures were above 1000 nM, above 1000 nM and above 1000 nM.
For `CCN1CCN(c2cc(-c3ccccc3)c(O)c(-c3ccccc3)c2)CC1` [Example 58, 1-Ethyl-4-(3,5-diphenyl-4-hydroxy)phenylpiperazine] the same measures were above 1000 nM, above 1000 nM and 290 nM.
On the same counts, the results for `CCCc1cc(N2CCN(CC)CC2)cc(-c2ccccc2)c1OC` [Example 59, 1-Ethyl-4-(3-phenyl-4-methoxy-5-propyl)phenylpiperazine] are 36.7 nM, 47 nM and 301 nM.
On to `CCN1CCN(c2cc(-c3ccccc3)c(OC(C)C)c(-c3ccccc3)c2)CC1` [Example 60, 1-Ethyl-4-(3,5-diphenyl-4-isopropxy)phenylpiperazine], for which the Ki at serotonin S2 receptor, on dopamine D2 receptor (setting [1]) and at adrenergic α1 receptor was above 1000 nM in each case.
For `CCN1CCN(c2ccc(OC(C)C)c(-c3ccccc3)c2)CC1` [Example 61, 1-Ethyl-4-(3-phenyl-4-isopropxy)phenylpiperazine], the Ki on serotonin S2 receptor, at dopamine D2 receptor (setting [1]) and on adrenergic α1 receptor was above 1000 nM throughout.
With `CCN1CCN(c2ccc(O)c(-c3ccccc3)c2)CC1` [Example 62, 1-Ethyl-4-(3-phenyl-4-hydroxy)phenylpiperazine], the Ki on serotonin S2 receptor, at dopamine D2 receptor (setting [1]) and on adrenergic α1 receptor was above 1000 nM in each case.
Consider `CCN1CCN(c2cc(CCCO)cc(-c3ccccc3)c2OC)CC1` [Example 63, 1-Ethyl-4-[2-methoxy-3-phenyl-5-(3-hydroxypropyl)]phenylpiperazine], for which the inhibition constant Ki is 703 nM at serotonin S2 receptor, above 1000 nM at dopamine D2 receptor (setting [1]) and above 1000 nM at adrenergic α1 receptor.
With `COc1c(-c2ccccc2)cc(N2CCN(CCO)CC2)cc1-c1ccccc1` [Example 64], the Ki at serotonin S2 receptor was determined as 284 nM; at dopamine D2 receptor (setting [1]) it was 384 nM; on adrenergic α1 receptor, 459 nM.
On the same counts, the results for `CCCc1cc(N2CCN(CC)CC2)cc(-c2ccc(F)cc2)c1OC` [Example 65] are 26.6 nM, 6.6 nM and 79 nM.
On the same counts, the results for `CCN1CCN(c2cc(CCO)c(OC)c(-c3ccccc3)c2)CC1` [Example 66, 1-Ethyl-4-[3-phenyl-4-methoxy-5-(2-hydroxyethyl)]phenylpiperazine] are 65.9 nM, 18.3 nM and 127 nM.
On the same counts, the results for `CCN1CCN(c2cc(CCO)cc(-c3ccccc3)c2OC)CC1` [Example 67, 1-Ethyl-4-[2-methoxy-3-phenyl-5-(2-hydroxyethyl)]phenylpiperazine] are above 1000 nM, above 1000 nM and 687 nM.
With `CCN1CCN(c2cc(CCCOC)c(OC)c(-c3ccccc3)c2)CC1` [Example 68, 1-Ethyl-4-[3-phenyl-4-methoxy-5-(3-methoxypropyl)]phenylpiperazine], the values for the Ki on serotonin S2 receptor, at dopamine D2 receptor (setting [1]) and on adrenergic α1 receptor were 32 nM, 35.1 nM and 195 nM, respectively.
For `CCN1CCN(c2cc(CCCOCOC)c(OC)c(-c3ccccc3)c2)CC1` [Example 69, 1-Ethyl-4-[3-phenyl-4-methoxy-5-(3-methoxymethoxypropyl)]phenylpiperazine], the Ki on serotonin S2 receptor worked out at 67.1 nM; at dopamine D2 receptor (setting [1]), 171 nM; at adrenergic α1 receptor, 321 nM.
As to `CCc1cc(N2CCN(CC)CC2)cc(-c2ccccc2)c1OC` [Example 70], the Ki on serotonin S2 receptor amounted to 128 nM; on dopamine D2 receptor (Ki value, dopamine D2 receptor), 41.9 nM; at adrenergic α1 receptor it was 322 nM.
`CCN1CCN(c2cc(CCCC#N)c(OC)c(-c3ccccc3)c2)CC1` [Example 71, 1-Ethyl-4-[3-phenyl-4-methoxy-5-(3-cyanopropyl)]phenylpiperazine]: the Ki at serotonin S2 receptor was 90.9 nM; at dopamine D2 receptor (setting [1]) it was 14.7 nM; on adrenergic α1 receptor, 131 nM.

By Ki is commonly meant a measure of affinity in units of concentration, obtained from inhibition or displacement.
